This passage reports remaining target (mRNA or protein) (fraction of control) results from the OligoGym collection.

In one data set the target is CD44. The following applies: ASO.
A further data set addresses SRA1. The following applies: ASO.

These antisense oligonucleotides have a phosphorothioate backbone; sugars and methylation of C are not fully specified.
Further: test concentration or dose not given here.

In the data set with CD44, AAAGGTTGGCGATCAGGA came in with a remaining target (mRNA or protein) (fraction of control) of at least 1.
Sequence AAATCCGATGCTCAGAGC registered a remaining target (mRNA or protein) (fraction of control) with CD44 of at least 1.
For AACCCTGGGAAATGTCCT, the remaining target (mRNA or protein) (fraction of control) with CD44 was at least 1.
The sequence AAGCCAAGGCCAAGAGGG yielded a remaining target (mRNA or protein) (fraction of control) with CD44 of at least 1.
For the sequence AAGGCATTGGGCAGGTCT, in the data set with CD44, the remaining target (mRNA or protein) (fraction of control) came to 0.99.
For the sequence AATGTCCTTAGCTGGTGG, in the data set with CD44, the remaining target (mRNA or protein) (fraction of control) is at least 1.
Sequence ACAGCTCCATTGCCACTG displayed a remaining target (mRNA or protein) (fraction of control) with CD44 of at least 1.
The sequence ACCAGGCCCTATTAACCC had a remaining target (mRNA or protein) (fraction of control) in the data set with CD44 of at least 1.
Still for that read-out and setting: the value for ACGTGGAATACACCTGCA was at least 1; that for AGAGCTTTCTCCATCTGG was at least 1.
In the data set with CD44, AGAGGGATGCCAAGATGA yielded a remaining target (mRNA or protein) (fraction of control) of at least 1.
On the same count and under the same terms, the value for AGATTCGCAATGAAACAA was at least 1; that for AGCAATGCCCAGGGATTA was at least 1; that for AGCCATCCATAGCACACC was 0.97.
In the data set with CD44, AGCCGCTGCTCACGTCAT gave a remaining target (mRNA or protein) (fraction of control) of at least 1.
On the same count and under the same terms, to AGGACTGATCCAGGGTTT belongs 0.83.
AGGTCTCAAATCCGATGC: in the data set with CD44, the remaining target (mRNA or protein) (fraction of control) is at least 1.
Consider AGTGGAAAGCAATGCCCA, for which the remaining target (mRNA or protein) (fraction of control) with CD44 is at least 1.
On the same count and under the same terms, to ATAGCACACCCGAGGATG belongs at least 1; to ATCAGTAGGGTTGCTGGG, at least 1.
ATCCAGGGACTGTCTTCG had a remaining target (mRNA or protein) (fraction of control) with CD44 of at least 1.
Same read-out and setting: the value for ATCCATAGCACACCCGAG was at least 1; that for CAACGGTTGTTTCTTTCC was at least 1.
Same read-out and setting: to CAAGGTGCTATTGAAAGC belongs 0.92; to CAGGGATTAGGCTATGGA, at least 1.
In the data set with CD44, CCAACCTCAGTGGAAAGC displayed a remaining target (mRNA or protein) (fraction of control) of at least 1.
Turning to CCACATGCCCTTCTATGA, the remaining target (mRNA or protein) (fraction of control) with CD44 worked out at 0.9.
For the sequence CCATTTCCTGAGACTTGC, in the data set with CD44, the remaining target (mRNA or protein) (fraction of control) was at least 1.
Still for that read-out and setting: to CCCACACCTTCTTCGACT belongs 0.94.
CCTTTGGTGTCTCCCAGA had a remaining target (mRNA or protein) (fraction of control) with CD44 of at least 1.
In the data set with CD44, CGATCTGCGCCAGGCTCA showed a remaining target (mRNA or protein) (fraction of control) of 0.72.
Same read-out and setting: the value for CGGAGCGAACGGAGGGCG was at least 1.
With CGTCCGAGAGATGCTGTA, the remaining target (mRNA or protein) (fraction of control) in the data set with CD44 came out at 0.52.
CGTTGAGTCCACTTGGCT: in the data set with CD44, the remaining target (mRNA or protein) (fraction of control) is at least 1.
Sequence TTCCTGCAGCAGTGCCAG registered a remaining target (mRNA or protein) (fraction of control) with SRA1 of 0.45.
In the data set with SRA1, TTCCTTGTTGCCTGCGGA had a remaining target (mRNA or protein) (fraction of control) of 0.72.
Still for that read-out and setting: to TTCTCATGCTGAAATGAA belongs 0.74.
Take TTCTGCAATTAATCTTTT: the remaining target (mRNA or protein) (fraction of control) with SRA1 was determined as 0.59.
Turning to TTCTTTACAGGTATTGAC, the remaining target (mRNA or protein) (fraction of control) with SRA1 is at least 1.
In the data set with SRA1, TTGGCTGCCTCCTCTGAA yielded a remaining target (mRNA or protein) (fraction of control) of 0.58.
On the same count and under the same terms, the value for TTGGTAAGCAGCGAGCGC was 0.56; that for TTTAACTCCTACCATCCA was 0.89.
On to TTTACAGGTATTGACAAC, for which, in the data set with SRA1, the remaining target (mRNA or protein) (fraction of control) was at least 1.
On the same count and under the same terms, the value for TTTCACCGCAGAGATGTT was at least 1; that for TTTCTCTTCATTGGCTGC was 0.38.
On the same count and under the same terms, to TTTCTGCAATTAATCTTT belongs at least 1.
In turn, TTTTAACTCCTACCATCC yielded a remaining target (mRNA or protein) (fraction of control) with SRA1 of at least 1.
